Reference: ChEMBL document CHEMBL1201862, “PubChem BioAssay data set” (2004)
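1) Cells in 96-well plates. 2) Compound, 48 h, 5 concentrations. 3) Linear interpolation between surrounding doses. 4) Unreached endpoint = highest concentration. GI50: concentration for 50% inhibition of growth.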 Calls of active or inactive are those of the source. No stated cut-off is given here; in the data, active = GI50 up to about 1.1 µM and inactive = higher.

How the values were obtained:
Test in all cases: NCI-60 cell line screen, 48 h
[1] = tested on: 786-0
[2] = tested on: A498
[3] = tested on: A549
[4] = tested on: ACHN
[5] = tested on: BT-549
[6] = tested on: CAKI-1
[7] = tested on: COLO 205
[8] = tested on: DU-145
[9] = tested on: EKVX
[10] = tested on: HCC 2998
[11] = tested on: HCT-116
[12] = tested on: HCT-15
[13] = tested on: HL-60
[14] = tested on: HOP-62
[15] = tested on: HOP-92
[16] = tested on: HT-29
[17] = tested on: Hs-578T
[18] = tested on: IGROV-1
[19] = tested on: K562
[20] = tested on: KM12
[21] = tested on: LOX IMVI
[22] = tested on: M14
[23] = tested on: MCF7
[24] = tested on: MDA-MB-231
[25] = tested on: MDA-MB-435
[26] = tested on: MDA-N
[27] = tested on: MOLT-4
[28] = tested on: NCI-H226
[29] = tested on: NCI-H23
[30] = tested on: NCI-H460
[31] = tested on: NCI-H522
[32] = tested on: NCI/ADR-RES
[33] = tested on: OVCAR-3
[34] = tested on: OVCAR-4
[35] = tested on: OVCAR-5
[36] = tested on: OVCAR-8
[37] = tested on: PC-3
[38] = tested on: RPMI-8226
[39] = tested on: RXF 393
[40] = tested on: SF-268
[41] = tested on: SF-295
[42] = tested on: SF-539
[43] = tested on: SK-MEL-28
[44] = tested on: SK-MEL-2
[45] = tested on: SK-MEL-5
[46] = tested on: SK-OV-3
[47] = tested on: SN12C
[48] = tested on: SNB-19
[49] = tested on: SNB-75
[50] = tested on: SR
[51] = tested on: SW-620
[52] = tested on: T47D
[53] = tested on: TK-10
[54] = tested on: U-251
[55] = tested on: UACC-257
[56] = tested on: UACC-62
[57] = tested on: UO-31
[58] = tested on: CCRF-CEM

CC(C)(/N=N/C(C)(C)C(=N)N)C(=N)N
GI50 [1]: > 100 µM (inactive)
GI50 [2]: > 100 µM (inactive)
GI50 [3]: > 100 µM (inactive)
GI50 [4]: > 100 µM (inactive)
GI50 [5]: > 100 µM (inactive)
GI50 [6]: > 100 µM (inactive)
GI50 [7]: > 100 µM (inactive)
GI50 [8]: > 100 µM (inactive)
GI50 [9]: > 100 µM (inactive)
GI50 [10]: > 100 µM (inactive)
GI50 [11]: > 100 µM (inactive)
GI50 [12]: > 100000 nM
GI50 [13]: > 100 µM (inactive)
GI50 [14]: > 100 µM (inactive)
GI50 [15]: > 100 µM (inactive)
GI50 [16]: > 100 µM (inactive)
GI50 [17]: > 100 µM (inactive)
GI50 [18]: > 100 µM (inactive)
GI50 [19]: > 100 µM (inactive)
GI50 [20]: > 100 µM (inactive)
GI50 [21]: > 100 µM (inactive)
GI50 [22]: > 100 µM (inactive)
GI50 [23]: > 100 µM (inactive)
GI50 [24]: > 100 µM (inactive)
GI50 [25]: > 100 µM (inactive)
GI50 [26]: > 100 µM (inactive)
GI50 [27]: > 100 µM (inactive)
GI50 [28]: > 100 µM (inactive)
GI50 [29]: > 100 µM (inactive)
GI50 [30]: > 100 µM (inactive)
GI50 [31]: > 100 µM (inactive)
GI50 [32]: > 100 µM (inactive)
GI50 [33]: > 100 µM (inactive)
GI50 [34]: > 100 µM (inactive)
GI50 [35]: > 100 µM (inactive)
GI50 [36]: > 100 µM (inactive)
GI50 [37]: > 100 µM (inactive)
GI50 [38]: > 100 µM (inactive)
GI50 [39]: > 100 µM (inactive)
GI50 [40]: > 100 µM (inactive)
GI50 [41]: > 100 µM (inactive)
GI50 [42]: > 100 µM (inactive)
GI50 [43]: > 100 µM (inactive)
GI50 [44]: > 100 µM (inactive)
GI50 [45]: > 100 µM (inactive)
GI50 [46]: > 100 µM (inactive)
GI50 [47]: > 100 µM (inactive)
GI50 [48]: > 100 µM (inactive)
GI50 [49]: > 100 µM (inactive)
GI50 [50]: > 100 µM (inactive)
GI50 [51]: > 100 µM (inactive)
GI50 [52]: > 100 µM (inactive)
GI50 [53]: > 100 µM (inactive)
GI50 [54]: > 100 µM (inactive)
GI50 [55]: > 100 µM (inactive)
GI50 [56]: > 100 µM (inactive)
GI50 [57]: > 100 µM (inactive)

Cc1ccnc2nc(-c3cccc(Cl)c3)cc(O)c12
GI50 [1]: 0.08 µM (active)
GI50 [2]: 0.234 µM (active)
GI50 [3]: 0.0748 µM (active)
GI50 [4]: 1.34 µM (inactive)
GI50 [5]: 1.65 µM (inactive)
GI50 [6]: 1.33 µM (inactive)
GI50 [58]: 55.3 nM (active)
GI50 [7]: 0.0598 µM (active)
GI50 [8]: 0.495 µM (active)
GI50 [9]: > 100 µM (inactive)
GI50 [10]: 0.224 µM (active)
GI50 [11]: 0.0269 µM (active)
GI50 [12]: 40.7 nM
GI50 [13]: 0.0115 µM (active)
GI50 [14]: 0.0708 µM (active)
GI50 [15]: 2.43 µM (inactive)
GI50 [16]: 0.0401 µM (active)
GI50 [17]: 0.44 µM (active)
GI50 [18]: 0.185 µM (active)
GI50 [19]: < 0.0143 µM (active)
GI50 [20]: 0.0682 µM (active)
GI50 [21]: 0.155 µM (active)
GI50 [22]: 0.0822 µM (active)
GI50 [23]: 0.36 µM (active)
GI50 [24]: 0.108 µM (active)
GI50 [25]: < 0.01 µM (active)
GI50 [26]: 0.0108 µM (active)
GI50 [27]: 0.0658 µM (active)
GI50 [28]: 3.4 µM (inactive)
GI50 [29]: 0.826 µM (active)
GI50 [30]: 0.0386 µM (active)
GI50 [31]: 0.0459 µM (active)
GI50 [32]: 0.1 µM (active)
GI50 [33]: 0.0279 µM (active)
GI50 [34]: > 91.4 µM (inactive)
GI50 [36]: 0.308 µM (active)
GI50 [37]: 0.0206 µM (active)
GI50 [38]: 0.0356 µM (active)
GI50 [39]: 2.77 µM (inactive)
GI50 [40]: 20.7 µM (inactive)
GI50 [41]: 0.0426 µM (active)
GI50 [42]: 0.0906 µM (active)
GI50 [43]: 1.9 µM (inactive)
GI50 [44]: 0.0675 µM (active)
GI50 [45]: 0.038 µM (active)
GI50 [46]: 0.267 µM (active)
GI50 [47]: 0.139 µM (active)
GI50 [48]: 0.132 µM (active)
GI50 [49]: > 10 µM (inactive)
GI50 [50]: 0.0325 µM (active)
GI50 [51]: 0.0524 µM (active)
GI50 [52]: > 100 µM (inactive)
GI50 [53]: > 100 µM (inactive)
GI50 [54]: 0.0596 µM (active)
GI50 [55]: > 100 µM (inactive)
GI50 [56]: 0.0474 µM (active)
